Entries after “also recorded” stand apart in the source; their conditions may differ.
Columns and labels:
[1] = test system: SD rat kidney fibrosis model by unilateral ureteral occlusion (UUO); test: Efficacy study on SD rat kidney fibrosis model by unilateral ureteral occlusion (UUO); type: in vivo, Sprague Dawley (SD) rats
Description: This study was to evaluate the therapeutic efficacy of MMP-12 inhibitor, PC-16 on a renal fibrosis model by unilateral ureteral occlusion (UUO). Male Sprague Dawley (SD) rats (180-220 g, n=71) were used in this study. Animals were randomly divided into 4 groups: vehicle group (group-1, n=8), PC-16 2 mg/kg/day group (group-2, n=9), PC-16 6 mg/kg/day group (group-3, n=10), PC-16 20 mg/kg/day group (group-4, n=9). Animals were anesthetized with 2.5% isoflurane inhelation. The left ureter was ligated to create a unilateral ureteral occlusion (UUO) model to induce renal fibrosis. The test article, PC-16 was administrated twice a day via oral delivery after modeling for 14 days. Peripheral blood serum was prepared at pre-modeling and day-15 (one day after last dosing). All animals were euthanized and processed for left kidney pathology studies.
Animals: Gender: Male, SD rats, 180-220 g, total 71. Certificate: 11400700272659, Beijing Vital River Laboratory Animal Technology Co., Ltd., China. Animal holding: Animals were maintained in a temperature-controlled environment with a 12 hours light/12 hours dark cycle and free access to food and water. Experimental procedures were performed according to IACUC guidelines in the KCI (SuZhou) Biotech Inc. (KCI) animal research facility. Model creation: Total […] male SD rats were used in this study. After anesthesia with 2.5% isoflurane inhalation the animal abdomen was opened surgically. The left ureter was exposed and ligated close to the bladder to create the UUO model. After confirming no bleeding, the abdomen wall was closed in layers. The animals were maintained under temperature controlled pad (37° C.) for the recovery from anesthesia, and then were transferred to holding cages with regular food and water.
Experiment grouping: UUO modeling animals were divided into 7 groups randomizedly as vehicle (group-1, n=8), PC-16 2 mg/kg/day (group-5, n=9), PC-16 6 mg/kg/day (group-6, n=10), PC-16 20 mg/kg/day (group-7, n=9) (Table 4.1). Dosing regimen: All test articles were designed as an oral administration via a gastric perfusion. Test articles were designed to be delivered twice a day starting on the same day of modeling for 14 days (Table 4.1). Endpoints: 1) Blood collection: Peripheral blood was collected from all animals in each group and prepared for serum at pre-modeling and day-15 (one day after last dosing), stored at −80° C. All animals were euthanized according to KCI SOP. After confirming animal death without breath and heart bite the left kidneys were perfused with cold PBS followed by 10% neutral formalin and collected for further pathology study. 2) Detection of serum BUN and creatinine: The serum BUN and creatinine level were detected with Hitachi 7060 automatic biochemical analyzer and related test kits. 3) Kidney pathology examination: 3a) Kidney H&E staining and analysis: Following KCI's pathologic SOP all left kidneys were fixed in 10% formalin for at least 24 h at room temperature. After fixation, the kidney was cut longitudinally to get the largest surface and dehydrated in graded ethanol, cleared in xylene, and embedded in paraffin. Thin sections (3-μm) were mounted on glass slides, dewaxed, rehydrated to distilled water, and stained with hematoxylin and eosin (H&E). All stained slides were scanned with NanoZoomer Digital Pathology (S210, Hamamaci, Japan) scanner. Semi quantitative evaluation of the degree of tubular epithelial flattening and dilatation were graded from 0-5 according to the percentage of tubular involvement: score 0=no damage; score 1=1-10% damage; score 2=10-25% damage; score 3=25-50% damage; score 4=50-75% damage; score 5=75-100% damage. Semi quantitative evaluation of the tubular necrosis is graded from 0 to 3 according to the percentage of tubular involvement: score 0=no necrosis; score 1=<25% necrosis; score 2=25-50% necrosis; score 3=>50% necrosis. The average of tubular flattening and dilatation and necrosis as the total tubular damage was presented. […]

recombinant human MMP-10 = recombinant human MMP-10 (Homo sapiens, UniProt P09238); test: MMP selectivity assay, MMP-10; type: biochemical; conditions: Table 2 selectivity profile
Description: (§1) The inhibitory effect of compounds on the rate of cleaving fluorogenic MMP substrate (Enzo, BML-P128) by recombinant human MMP-12 catalytic domain (Enzo, BML-SE138) was carried out by methods known in the art. Briefly, to each well of a 96-well black opaque plate, all the reagents were sequentially added by pipetting, and the final reaction contained 4 nM of recombinant human MMP-12 catalytic domain, 4 μM of fluorogenic MMP substrate, and various concentrations (0.15 nM to 10,000 nM) of tested compound dilutions in HEPES buffer (pH 7.5) containing 10 mM of CaCl2), 0.01% Brij® 35 (polyoxyethylene (23) lauryl ether), and 0.1 mg/ml of BSA.
(§2) The enzyme and compounds were pre-incubated on a shaker to mix in wells. After an hour of mixing, fluorogenic substrate was added to each well. Reaction without enzyme was used as a blank control in the plate. The plate was then fed into a plate reader to measure fluorescence intensity at Excitation/Emission wavelengths of 340 nm/440 nm every 10 mins for at least 1 hour at 37° C. The IC50 of each compound in MMP-12 inhibition was determined by using a readout obtained at time point 30 minutes.
(§3) The MMP selectivity assay was performed by using other recombinant human MMPs, including MMP-1, MMP-2, MMP-3, MMP-7, MMP-8, MMP-9, MMP-10, MMP-13, and MMP-14. The IC50 of the compounds for the other recombinant human MMPs was determined as described above in Example 1, and are shown in Table 2.

recombinant human MMP-3 = recombinant human MMP-3 (Homo sapiens, UniProt P08254); test: MMP selectivity assay, MMP-3; type: biochemical; conditions: Table 2 selectivity profile
Description: as §1, §2, §3

recombinant human MMP-14 = recombinant human MMP-14 (Homo sapiens, UniProt P50281); test: MMP selectivity assay, MMP-14; type: biochemical; conditions: Table 2 selectivity profile
Description: as §1, §2, §3

recombinant human MMP-7 = target: T1, recombinant human MMP-7 (Homo sapiens, UniProt P09237); test: MMP selectivity assay, MMP-7; type: biochemical; conditions: Table 2 selectivity profile
T1 sequence (P09237 95-267): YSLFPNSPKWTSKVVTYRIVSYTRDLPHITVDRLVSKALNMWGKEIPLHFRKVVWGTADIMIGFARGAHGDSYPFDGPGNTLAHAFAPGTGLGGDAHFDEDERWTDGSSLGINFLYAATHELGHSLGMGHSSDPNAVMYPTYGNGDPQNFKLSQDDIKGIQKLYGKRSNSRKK
Description: as §1, §2, §3

recombinant human MMP-9 = recombinant human MMP-9 (Homo sapiens, UniProt P14780); test: MMP selectivity assay, MMP-9; type: biochemical; conditions: Table 2 selectivity profile
Description: as §1, §2, §3

[2] = UUO rats, 20 mg/kg/day (p<0.05)

Chain of recombinant human MMP-10 (P09238 99-476): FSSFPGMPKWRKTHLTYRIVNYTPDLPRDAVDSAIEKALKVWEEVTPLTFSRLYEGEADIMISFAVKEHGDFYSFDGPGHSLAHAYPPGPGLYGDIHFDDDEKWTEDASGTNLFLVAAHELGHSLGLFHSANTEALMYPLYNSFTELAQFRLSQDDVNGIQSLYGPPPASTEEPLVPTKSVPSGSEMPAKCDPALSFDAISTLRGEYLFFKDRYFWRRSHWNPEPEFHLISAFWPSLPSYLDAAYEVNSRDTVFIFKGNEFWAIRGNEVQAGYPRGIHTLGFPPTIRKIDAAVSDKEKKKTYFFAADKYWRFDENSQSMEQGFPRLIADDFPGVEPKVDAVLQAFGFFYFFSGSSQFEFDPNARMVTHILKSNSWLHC
Chain of recombinant human MMP-9 (P14780 94-707): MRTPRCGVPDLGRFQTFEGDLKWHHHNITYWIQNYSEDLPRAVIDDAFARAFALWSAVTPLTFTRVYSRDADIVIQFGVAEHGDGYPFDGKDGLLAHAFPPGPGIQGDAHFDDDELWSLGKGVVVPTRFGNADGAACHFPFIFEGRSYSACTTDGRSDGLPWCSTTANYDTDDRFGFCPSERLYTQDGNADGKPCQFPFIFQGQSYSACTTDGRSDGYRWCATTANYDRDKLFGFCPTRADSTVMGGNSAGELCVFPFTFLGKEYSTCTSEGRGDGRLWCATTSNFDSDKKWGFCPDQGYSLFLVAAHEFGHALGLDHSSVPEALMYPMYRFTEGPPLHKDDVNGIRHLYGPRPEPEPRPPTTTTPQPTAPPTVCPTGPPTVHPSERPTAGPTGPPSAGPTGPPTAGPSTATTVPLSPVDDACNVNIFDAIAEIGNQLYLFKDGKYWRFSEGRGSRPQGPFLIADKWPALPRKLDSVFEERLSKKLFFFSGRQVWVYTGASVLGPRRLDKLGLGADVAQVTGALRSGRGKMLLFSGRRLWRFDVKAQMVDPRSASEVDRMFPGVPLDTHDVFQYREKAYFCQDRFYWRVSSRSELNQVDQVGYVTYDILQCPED
Chain of recombinant human MMP-3 (P08254 100-477): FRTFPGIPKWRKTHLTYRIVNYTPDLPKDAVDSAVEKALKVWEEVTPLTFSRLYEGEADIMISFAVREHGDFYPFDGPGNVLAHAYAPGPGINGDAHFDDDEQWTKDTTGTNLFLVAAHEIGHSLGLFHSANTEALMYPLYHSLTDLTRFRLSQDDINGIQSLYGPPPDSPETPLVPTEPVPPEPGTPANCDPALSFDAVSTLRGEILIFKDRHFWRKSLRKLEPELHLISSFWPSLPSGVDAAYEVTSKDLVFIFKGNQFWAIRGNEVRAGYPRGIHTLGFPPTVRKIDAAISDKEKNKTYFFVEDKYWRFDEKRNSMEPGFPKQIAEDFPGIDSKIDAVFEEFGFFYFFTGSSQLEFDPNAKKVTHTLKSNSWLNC

IC50 (recombinant human MMP-10): 1 to 10 µM | IC50 (recombinant human MMP-3): 1 to 10 µM | IC50 (recombinant human MMP-14): 1 to 10 µM | IC50 (recombinant human MMP-7): > 10 µM | IC50 (recombinant human MMP-9): 1 to 10 µM
SMILES: Cc1cc(COc2ccc(Sc3ccncc3C3NC(=O)NC3=O)cc2)ccn1 (stereo not shown) [PC-16]
collagen-IV deposition in cortex area of left kidney (IHC) ([1]; UUO rats, 6 mg/kg/day (P<0.05)): significant reduction in collagen-IV deposition | interstitial fibrosis score in cortex ([1]; UUO rats, 20 mg/kg/day (p<0.001)): significant reduction in the fibrosis score | collagen-I deposition in cortex area of left kidney (IHC) [1, 2]: significant reduction in collagen-I deposition | collagen-IV deposition in cortex area of left kidney (IHC) [1, 2]: significant reduction in collagen-IV deposition | serum blood urea nitrogen (BUN) elevation vs vehicle/model group ([1]; UUO rats, 20 mg/kg/day oral bid 14 days, day-15, 20 mg/kg/day): slightly limit the blood urea nitrogen (BUN) elevation; also recorded: did not show a statistically significant difference | left kidney tubular damage (renal tubular damage score) ([1]; UUO rats, 2, 6, 20 mg/kg/day oral bid 14 days, 20 more effective than 2 mg/kg/day (p<0.01)): clear dose dependent effect | interstitial inflammation in cortex (semi quantitative score) ([1]; UUO rats, 2, 6, 20 mg/kg/day oral bid 14 days, dose dependent): significant reduction | interstitial fibrosis score in cortex ([1]; UUO rats, all dose groups (2, 6, 20 mg/kg/day), dose dependent): significant reduction in the fibrosis score

— patent US20190352288A1, “MATRIX METALLOPROTEINASE (MMP) INHIBITORS AND METHODS OF USE THEREOF” (Foresee Pharmaceuticals Co., Ltd., priority 2018, published 2019)
